Measured values as given in patent US4014921A, “O-Acetoxy benzoate ester of 2(p-acetamido-phenyloxy)ethyl alcohol” (Alter, S.A., priority 1975, dated 1977).
Like-named read-outs stand apart in the source and are kept apart here.

How the values were obtained:
[1] = Anti-inflammatory activity: edema inhibition (method of Winter, Risley and Nuss); type: in vivo; conditions: in vivo; LD50 / anti-inflammatory ED50; read-out: anti-inflammatory ED50 times lower than LD50
[2] = tested on: edema; test: as above; type: in vivo
[3] = Analgesic activity (test by Randall and Salitto); type: in vivo
Experimental: Int. Pharmacodyn 151, 409 (1957). Doses of 200, 300 and 500 mg/Kg. cause 1.43: 1.77 and 2.09 effects over controls.

[4] = Antithermic (antipyretic) activity: yeast extract-induced temperature rise in rabbits; type: in vivo, rabbit
Experimental: Antithermic activity was determined in rabbits, adjusting an endovenous dose of yeast extract to achieve a + 1.7° C rise over the basal temperature of the animal. Three hours after injecting the pyrogenic agent, 200 mg/Kg of the product were administered interperitoneally.

[5] = tested on: rat; conditions: in vivo, po
[6] = tested on: stomach or intestine; conditions: rat, in vivo, 500 mg/kg
[7] = tested on: rat; test: Toxicity test by oral administration in a rat (LD50, LD10)
[8] = as above; conditions: rat, in vivo, po
[9] = tested on: stomach or intestine; test: Gastrointestinal toxicity: ulcers and hemorrhagic content after one dose of 500 mg/Kg in rats; conditions: one dose of 500 mg/Kg, 10-rat groups
[10] = comparison with aspirin, in words

CC(=O)Nc1ccc(OCCOC(=O)c2ccccc2OC(C)=O)cc1 [Compound (I), o-acetoxy benzoate ester of 2(p-acetamido-phenyloxy)-ethyl alcohol]
selectivity ratio [1]: 10
anti-inflammatory activity relative to aspirin [2, 10]: as active as aspirin
anti-inflammatory activity: times less active than indometacine ([2]; comparison with indometacine): 33 times
inhibition at 200 mg/kg ([2]; dose 200 mg/Kg): 23%
inhibition at 400 mg/kg ([2]; dose 400 mg/Kg): 31%
analgesic activity relative to aspirin [3, 10]: equipotential with respect to aspirin
analgesic effect over controls ([3]; dose 200 mg/Kg): 1.43
analgesic effect over controls ([3]; dose 300 mg/Kg): 1.77
analgesic effect over controls ([3]; dose 500 mg/Kg): 2.09
animal's temperature after administration, for two consecutive hours ([4]; 200 mg/Kg interperitoneally, three hours after pyrogenic agent (+1.7° C rise)): decreased to its basal values
duration of antipyretic effect relative to aspirin and N-acetyl-p-aminophenol ([4]; in words): longer lasting effects
LD10 (maximum dose possible to administer) [5]: 7,000 mg/Kg
gastrointestinal disorders, comparison with aspirin [6]: clear differences appear in favor of compound (I) over aspirin
ulcers of the stomach or intestine [6]: no ulcers
toxicity factor relative to aspirin ([7]; factor in favor of product (I) over aspirin): 7
toxicity relative to aspirin ([7]; oral, rat, in words): less toxic than aspirin

CC(=O)Oc1ccccc1C(=O)O [aspirin]
LD50 [8]: 978 mg/kg
rats whose stomachs revealed hemorrhagic content [9]: 60%
ulcers of the stomach or intestine [9]: no ulcers

COc1ccc2c(c1)c(CC(=O)O)c(C)n2C(=O)c1ccc(Cl)cc1 [indometacine, reference compound]
anti-inflammatory ED50 relative to toxic range ([2]; in words): very close to the toxic range
